One series concerns the target Histone deacetylase 1 (Homo sapiens, UniProt Q13547). Description: Inhibition of HDAC1 (unknown origin) using Boc-Lys(acetyl)-AMC as substrate preincubated for 1 hrs followed by substrate addition and measured after 2 hrs by spectrophotometer based fluorometric assay.
Series [1] deals with Phosphatidylinositol 4,5-bisphosphate 3-kinase catalytic subunit alpha isoform (Homo sapiens, UniProt P42336). Description: Inhibition of PI3Kalpha (unknown origin) using PIP2 as substrate incubated for 1 hrs in presence of ATP by ADP-Glo kinase assay. A general note: ADP-Glo turns the ADP formed in a reaction into a luminescent signal.
Another series deals with Histone deacetylase 2 (Homo sapiens, UniProt Q92769). Description: Inhibition of HDAC2 (unknown origin) using Boc-Lys(acetyl)-AMC as substrate preincubated for 1 hrs followed by substrate addition and measured after 2 hrs by spectrophotometer based fluorometric assay.
The next series concerns the target Histone deacetylase 3 (Homo sapiens, UniProt O15379). Description: Inhibition of HDAC3 (unknown origin) using Boc-Lys(acetyl)-AMC as substrate preincubated for 1 hrs followed by substrate addition and measured after 2 hrs by spectrophotometer based fluorometric assay.
The test system of series [2] is JeKo-1. The series can be described thus: Potentiation of CI994-induced apoptosis in human JeKo-1 cells. It counts as functional, cell-based.
Series [3] has as its system JeKo-1. Description: Induction of apoptosis in human JeKo-1 cells assessed as late apoptotic cells at 1 uM incubated for 48 hrs by Annexin-V/FITC and PI staining based flow cytometric analysis (reference value: 3.66%). Type of series: functional. For orientation: Flow cytometry measures light scatter and fluorescence of single cells or particles in a stream.
Series [4] relates to JeKo-1. Description: Induction of apoptosis in human JeKo-1 cells assessed as viable cells at 0.25 uM incubated for 48 hrs by Annexin-V/FITC and PI staining based flow cytometric analysis (reference value: 94.1%). Type of series: functional. Particulars: read-out: Activity.
Series [5] deals with JeKo-1. The series can be described thus: Induction of apoptosis in human JeKo-1 cells assessed as viable cells at 0.5 uM incubated for 48 hrs by Annexin-V/FITC and PI staining based flow cytometric analysis (reference value: 94.1%). The note with it: read-out: Activity. It counts as functional.
For series [6], the system named is JeKo-1. Description: Induction of apoptosis in human JeKo-1 cells assessed as late apoptotic cells at 0.25 uM incubated for 48 hrs by Annexin-V/FITC and PI staining based flow cytometric analysis (reference value: 3.66%). Type of series: functional.
For series [7], the system named is JeKo-1. The series can be described thus: Antiproliferative activity against human JeKo-1 cells incubated for 48 hrs by resazurin dye based fluorescence micro plate reader analysis. It counts as functional, cell-based. The note with it: JeKo-1, 48 h.
Series [8] deals with JeKo-1. Description: Induction of apoptosis in human JeKo-1 cells assessed as necrotic cells at 1 uM incubated for 48 hrs by Annexin-V/FITC and PI staining based flow cytometric analysis (reference value: 1.05%). Type of series: functional.
The subject of series [9] is JeKo-1. The series can be described thus: Induction of apoptosis in human JeKo-1 cells assessed as necrotic cells at 0.25 uM incubated for 48 hrs by Annexin-V/FITC and PI staining based flow cytometric analysis (reference value: 1.05%). Type of series: functional.
Series [10] is described as follows: Cytotoxicity against human HL7702 cells incubated for 48 hrs by resazurin dye based fluorescence micro plate reader analysis. It counts as toxicity, cell-based. The note with it: HL7702 (L02) cells.
The test system of series [11] is JeKo-1. Description: Induction of apoptosis in human JeKo-1 cells assessed as viable cells at 1 uM incubated for 48 hrs by Annexin-V/FITC and PI staining based flow cytometric analysis (reference value: 94.1%). Type of series: functional. Particulars: read-out: Activity.
The test system of series [12] is JeKo-1. Description: Induction of apoptosis in human JeKo-1 cells assessed as necrotic cells at 0.5 uM incubated for 48 hrs by Annexin-V/FITC and PI staining based flow cytometric analysis (reference value: 1.05%). It counts as functional.
Series [13] relates to JeKo-1. Description: Induction of apoptosis in human JeKo-1 cells assessed as late apoptotic cells at 0.5 uM incubated for 48 hrs by Annexin-V/FITC and PI staining based flow cytometric analysis (reference value: 3.66%). Type of series: functional.
Series [14] in a line: Inhibition of PI3K/AKT/mTOR signaling in human JeKo-1 cells assessed as decrease in AKT phosphorylation at S473 residue at 0.25 uM incubated for 24 hrs by Western blot analysis. Type of series: cell-based. (A western blot detects proteins with antibodies after separation by electrophoresis.)
The test system of the next series is HL-60. The series can be described thus: Antiproliferative activity against human HL-60 cells incubated for 48 hrs by resazurin dye based fluorescence micro plate reader analysis. The note with it: HL-60, 48 h. Type of series: functional, cell-based.
The test system of a further series is MM1.S. The series can be described thus: Antiproliferative activity against human MM1.S cells incubated for 48 hrs by resazurin dye based fluorescence micro plate reader analysis. It counts as functional, cell-based.
Another series deals with MDA-MB-231. The series can be described thus: Antiproliferative activity against human MDA-MB-231 cells incubated for 48 hrs by resazurin dye based fluorescence micro plate reader analysis. Type of series: functional, cell-based. Particulars: MDA-MB-231, 48 h.
Series [15] concerns JeKo-1. Description: Effect on total AKT protein level in human JeKo-1 cells at 0.25 uM incubated for 24 hrs by Western blot analysis. Type of series: functional, cell-based.

Active and inactive are the calls of the source. The calls are words filed in the database; no cut-off is given here.

Sequence of Phosphatidylinositol 4,5-bisphosphate 3-kinase catalytic subunit alpha isoform (P42336 whole entry, canonical isoform): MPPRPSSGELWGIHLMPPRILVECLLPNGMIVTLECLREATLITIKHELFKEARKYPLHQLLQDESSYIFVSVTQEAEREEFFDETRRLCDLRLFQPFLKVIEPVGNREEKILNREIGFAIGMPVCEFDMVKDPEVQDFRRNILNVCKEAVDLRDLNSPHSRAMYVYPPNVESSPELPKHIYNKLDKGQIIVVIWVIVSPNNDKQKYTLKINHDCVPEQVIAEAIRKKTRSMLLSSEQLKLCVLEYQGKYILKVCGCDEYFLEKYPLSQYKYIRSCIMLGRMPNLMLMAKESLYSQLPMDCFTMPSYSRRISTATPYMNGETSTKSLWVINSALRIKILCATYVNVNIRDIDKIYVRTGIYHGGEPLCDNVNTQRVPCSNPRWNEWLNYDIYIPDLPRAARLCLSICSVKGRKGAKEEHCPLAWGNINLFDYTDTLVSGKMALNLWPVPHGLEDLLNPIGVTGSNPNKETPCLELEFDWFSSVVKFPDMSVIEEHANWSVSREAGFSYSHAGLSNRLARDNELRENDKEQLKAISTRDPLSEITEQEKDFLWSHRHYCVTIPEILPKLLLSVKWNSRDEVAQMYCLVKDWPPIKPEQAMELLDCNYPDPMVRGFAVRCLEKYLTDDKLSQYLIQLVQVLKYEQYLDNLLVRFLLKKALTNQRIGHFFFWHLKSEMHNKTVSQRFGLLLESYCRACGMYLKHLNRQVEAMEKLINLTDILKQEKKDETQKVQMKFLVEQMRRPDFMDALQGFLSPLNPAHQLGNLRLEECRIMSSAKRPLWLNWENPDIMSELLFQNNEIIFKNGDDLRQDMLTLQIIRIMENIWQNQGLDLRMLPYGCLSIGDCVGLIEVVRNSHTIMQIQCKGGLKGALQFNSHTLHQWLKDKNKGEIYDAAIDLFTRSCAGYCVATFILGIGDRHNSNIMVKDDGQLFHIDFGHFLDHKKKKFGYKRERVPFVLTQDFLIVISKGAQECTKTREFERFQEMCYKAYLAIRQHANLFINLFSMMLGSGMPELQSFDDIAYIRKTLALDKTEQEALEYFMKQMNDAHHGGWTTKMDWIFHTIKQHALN
Sequence of Histone deacetylase 2 (Q92769 whole entry): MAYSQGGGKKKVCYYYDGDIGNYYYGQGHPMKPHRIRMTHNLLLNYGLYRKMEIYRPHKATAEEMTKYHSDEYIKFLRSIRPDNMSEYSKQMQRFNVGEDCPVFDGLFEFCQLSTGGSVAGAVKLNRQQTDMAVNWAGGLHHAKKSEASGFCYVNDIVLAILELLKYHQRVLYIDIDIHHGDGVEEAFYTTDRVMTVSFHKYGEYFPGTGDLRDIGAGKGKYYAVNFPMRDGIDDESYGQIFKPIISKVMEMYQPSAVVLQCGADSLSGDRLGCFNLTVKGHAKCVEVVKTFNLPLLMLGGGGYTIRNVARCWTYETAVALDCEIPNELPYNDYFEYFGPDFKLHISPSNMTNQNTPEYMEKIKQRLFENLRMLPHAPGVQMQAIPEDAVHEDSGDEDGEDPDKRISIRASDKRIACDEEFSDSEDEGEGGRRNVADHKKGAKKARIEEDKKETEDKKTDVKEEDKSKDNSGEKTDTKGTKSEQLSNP
Sequence of Histone deacetylase 3 (O15379 whole entry): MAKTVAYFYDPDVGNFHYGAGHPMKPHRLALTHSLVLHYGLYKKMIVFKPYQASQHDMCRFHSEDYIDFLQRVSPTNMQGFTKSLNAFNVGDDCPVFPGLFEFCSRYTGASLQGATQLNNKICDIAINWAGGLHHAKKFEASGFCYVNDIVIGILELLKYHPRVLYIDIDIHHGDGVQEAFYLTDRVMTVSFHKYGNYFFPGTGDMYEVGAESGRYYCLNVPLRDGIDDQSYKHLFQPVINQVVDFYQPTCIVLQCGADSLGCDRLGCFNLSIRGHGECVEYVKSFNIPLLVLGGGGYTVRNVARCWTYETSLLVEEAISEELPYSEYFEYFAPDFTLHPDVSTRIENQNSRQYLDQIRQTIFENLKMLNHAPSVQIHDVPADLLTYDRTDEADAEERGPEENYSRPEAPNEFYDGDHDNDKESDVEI
Sequence of Histone deacetylase 1 (Q13547 whole entry, canonical isoform): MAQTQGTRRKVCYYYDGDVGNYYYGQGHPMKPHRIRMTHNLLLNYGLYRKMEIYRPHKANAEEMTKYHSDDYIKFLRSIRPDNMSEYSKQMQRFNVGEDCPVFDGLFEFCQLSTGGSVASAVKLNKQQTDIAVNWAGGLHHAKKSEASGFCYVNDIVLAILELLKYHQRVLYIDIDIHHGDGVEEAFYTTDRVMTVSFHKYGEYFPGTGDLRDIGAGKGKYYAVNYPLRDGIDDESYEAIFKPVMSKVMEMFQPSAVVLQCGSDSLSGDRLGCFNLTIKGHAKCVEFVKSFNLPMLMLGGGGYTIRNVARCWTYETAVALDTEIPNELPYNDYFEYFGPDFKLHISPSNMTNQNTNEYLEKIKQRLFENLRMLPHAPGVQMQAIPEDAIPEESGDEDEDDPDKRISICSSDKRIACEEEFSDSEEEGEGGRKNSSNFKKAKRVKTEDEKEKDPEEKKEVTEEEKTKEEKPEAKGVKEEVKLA

One may read the IC50 as the concentration needed to halve the response being measured. `Nc1cc(F)ccc1NC(=O)c1ccc(NC(=O)Nc2ccc(-c3nc(N4CCOCC4)nc(N4CCOCC4)n3)cc2)cc1`: the IC50 against Histone deacetylase 1 was above 10000 nM; in [1], 17 nM; on Histone deacetylase 2, above 10000 nM; against Histone deacetylase 3, 499 nM.
As to `COc1nc(-c2ccc(NC(=O)Nc3ccc(C(=O)Nc4ccc(F)c(F)c4N)cc3)cc2)nc(N2CCOCC2)n1`, the IC50 at Histone deacetylase 1 was above 10000 nM; in series [1] it was 20.5 nM; against Histone deacetylase 2 it was above 10000 nM.
Consider `Nc1ccccc1NC(=O)CCCCNC(=O)c1ccc(NC(=O)Nc2ccc(-c3nc(N4CCOCC4)nc(N4CCOCC4)n3)cc2)cc1`, for which the IC50 was above 10000 nM against Histone deacetylase 1, 13.3 nM in series [1], above 10000 nM on Histone deacetylase 2 and above 10000 nM at Histone deacetylase 3.
As to `Nc1ccccc1NC(=O)CCCCCCNC(=O)c1ccc(NC(=O)Nc2ccc(-c3nc(OC4CCOC4)nc(N4CCOCC4)n3)cc2)cc1` (centres undefined), the half-inhibitory concentration (IC50) against Histone deacetylase 1 is 219 nM; in series [1], 16.6 nM; on Histone deacetylase 2, 241 nM; at Histone deacetylase 3, 69.3 nM.
Regarding `Nc1ccccc1NC(=O)c1ccc(NC(=O)Nc2ccc(-c3nc(N4CCOCC4)nc(N4CCOCC4)n3)cc2)cc1`, the half-inhibitory concentration (IC50) on Histone deacetylase 1 is above 10000 nM; in series [1] it was 6.5 nM; on Histone deacetylase 2 it was above 10000 nM; on Histone deacetylase 3, 134 nM.
With `Nc1ccccc1NC(=O)CCCCCNC(=O)c1ccc(NC(=O)Nc2ccc(-c3nc(N4CCOCC4)nc(N4CCOCC4)n3)cc2)cc1`, the half-inhibitory concentration (IC50) on Histone deacetylase 1 came out at 227 nM; in series [1], 17.3 nM; against Histone deacetylase 2 it was 602 nM; at Histone deacetylase 3 it was 99.2 nM.
Regarding `Nc1ccccc1NC(=O)CNC(=O)c1ccc(NC(=O)Nc2ccc(-c3nc(N4CCOCC4)nc(N4CCOCC4)n3)cc2)cc1`, the IC50 was 1950 nM at Histone deacetylase 1, 37.7 nM in series [1], above 10000 nM on Histone deacetylase 2 and above 10000 nM against Histone deacetylase 3.
Regarding `Nc1ccccc1NC(=O)CCCCCCNC(=O)c1ccc(NC(=O)Nc2ccc(-c3nc(OC4COC4)nc(N4CCOCC4)n3)cc2)cc1`, the IC50 against Histone deacetylase 1 is 178 nM; in series [1] it was 9 nM; against Histone deacetylase 2, 168 nM; against Histone deacetylase 3 it was 56.1 nM.
On the same counts, the results for `Nc1ccccc1NC(=O)CCNC(=O)c1ccc(NC(=O)Nc2ccc(-c3nc(N4CCOCC4)nc(N4CCOCC4)n3)cc2)cc1` are above 10000 nM, 51.7 nM, above 10000 nM and above 10000 nM.
On the same counts, the results for `Nc1c(NC(=O)c2ccc(NC(=O)Nc3ccc(-c4nc(N5CCOCC5)nc(N5CCOCC5)n4)cc3)cc2)ccc(F)c1F` are above 10000 nM, 14.3 nM, above 10000 nM and 1410 nM.
On the same counts, the results for `Nc1ccccc1NC(=O)CCCCCNC(=O)c1ccc(NC(=O)Nc2ccc(-c3nc(OC4CCOC4)nc(N4CCOCC4)n3)cc2)cc1` (centres undefined) are 211 nM, 7.9 nM, 247 nM and 54 nM.
In the case of `COc1nc(-c2ccc(NC(=O)Nc3ccc(C(=O)Nc4ccccc4N)cc3)cc2)nc(N2CCOCC2)n1`, the IC50 on Histone deacetylase 1 is above 10000 nM; in series [1] it was 11.2 nM; against Histone deacetylase 2, above 10000 nM; against Histone deacetylase 3 it was 334 nM.
Take `Nc1ccccc1NC(=O)CCCNC(=O)c1ccc(NC(=O)Nc2ccc(-c3nc(N4CCOCC4)nc(N4CCOCC4)n3)cc2)cc1`: the IC50 at Histone deacetylase 1 is above 10000 nM; in series [1], 11.6 nM; on Histone deacetylase 2 it was above 10000 nM; on Histone deacetylase 3 it was above 10000 nM.
Regarding `Nc1ccccc1NC(=O)c1ccc(NC(=O)Nc2ccc(-c3nc(OC4COC4)nc(N4CCOCC4)n3)cc2)cc1`, the IC50 on Histone deacetylase 1 was above 10000 nM; in [1] it was 2.4 nM; against Histone deacetylase 2, above 10000 nM; on Histone deacetylase 3, above 10000 nM.
Consider `Nc1ccccc1NC(=O)CCCCCCCNC(=O)c1ccc(NC(=O)Nc2ccc(-c3nc(N4CCOCC4)nc(N4CCOCC4)n3)cc2)cc1`, for which the IC50 against Histone deacetylase 1 worked out at 345 nM; in series [1] it was 75.7 nM; on Histone deacetylase 2 it was 490 nM; at Histone deacetylase 3 it was 210 nM.
`COc1nc(-c2ccc(NC(=O)Nc3ccc(C(=O)NCCCCCCC(=O)Nc4ccccc4N)cc3)cc2)nc(N2CCOCC2)n1`: the IC50 stood at 336 nM against Histone deacetylase 1, 88.3 nM in [1], 459 nM on Histone deacetylase 2 and 24.6 nM at Histone deacetylase 3.
With `CNCCNC(=O)c1ccc(NC(=O)Nc2ccc(-c3nc(OC)nc(N4CCOCC4)n3)cc2)cc1`, in the series with JeKo-1 [2], the outcome was Active. The Activity was found to be 8.29% with JeKo-1 [3]; 4.5% in the series on JeKo-1 [6]; 0.4% in the series on JeKo-1 [8]; 0.73% in the series on JeKo-1 [9]; 0.41% in the series with JeKo-1 [12]; 3.51% in the series with JeKo-1 [13]. The viability at 0.25 µM with JeKo-1 [4] came out at 93.9%. The viability at 0.5 µM with JeKo-1 [5] is 94.8%. In addition, the IC50 in series [1] turned out to be 2.4 nM; with JeKo-1 [7], 1100 nM; in the series on HL-60, 3100 nM; in the series with MM1.S, 3300 nM; in the series with MDA-MB-231 it was 4200 nM. Besides, the IC50 at 48 h in series [10] was above 100000 nM. Also, the viability at 1 µM in the series on JeKo-1 [11] was found to be 91.5%. Besides, the inhibition entry in series [14] is “Active”. Besides, the result in the series with JeKo-1 [15] was inactive.
`Nc1ccccc1NC(=O)CCCCCCNC(=O)c1ccc(NC(=O)Nc2ccc(-c3nc(N4CCOCC4)nc(N4CCOCC4)n3)cc2)cc1`: the IC50 against Histone deacetylase 1 is 404 nM; in series [1] it was 29.3 nM; against Histone deacetylase 2, 295 nM; against Histone deacetylase 3 it was 76.5 nM.
As for `Nc1ccccc1NC(=O)CCCCCNC(=O)c1ccc(NC(=O)Nc2ccc(-c3nc(OC4COC4)nc(N4CCOCC4)n3)cc2)cc1`, the IC50 is 81.5 nM against Histone deacetylase 1, 4.5 nM in series [1], 128 nM against Histone deacetylase 2 and 17.7 nM against Histone deacetylase 3.

Source of the values: ChEMBL document CHEMBL5634161, “Discovery of benzamide-based PI3K/HDAC dual inhibitors with marked pro-apoptosis activity in lymphoma cells” (Eur J Med Chem, 2023).
